Source: ChEMBL document CHEMBL1201862, “PubChem BioAssay data set” (2004)
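Step 1: Grow cells in 96-well plates. Step 2: Expose to compound for 48 hours at 5 concentrations. Step 3: Interpolate endpoints linearly; if unreached, use highest concentration. GI50 is the concentration that inhibits growth by half.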 Activity calls are given as the source filed them. No stated cut-off is given here; in the data, active = GI50 up to about 1.1 µM and inactive = higher.

Columns and labels:
Experiment in all cases: NCI tumour cell line growth inhibition, 48 h
SNB-75 = tested on: SNB-75
NCI-H460 = tested on: NCI-H460
SK-MEL-28 = tested on: SK-MEL-28
EKVX = tested on: EKVX
SF-268 = tested on: SF-268
OVCAR-3 = tested on: OVCAR-3
Hs-578T = tested on: Hs-578T
PC-3 = tested on: PC-3
SK-MEL-2 = tested on: SK-MEL-2
T47D = tested on: T47D
UACC-62 = tested on: UACC-62
OVCAR-8 = tested on: OVCAR-8
SF-539 = tested on: SF-539
NCI-H522 = tested on: NCI-H522
UO-31 = tested on: UO-31
SN12C = tested on: SN12C
HCT-15 = tested on: HCT-15
MDA-MB-231 = tested on: MDA-MB-231
SK-MEL-5 = tested on: SK-MEL-5
HCC 2998 = tested on: HCC 2998

SMILES | GI50 (SNB-75) | GI50 (NCI-H460) | GI50 (SK-MEL-28) | GI50 (EKVX) | GI50 (SF-268) | GI50 (OVCAR-3) | GI50 (Hs-578T) | GI50 (PC-3) | GI50 (SK-MEL-2) | GI50 (T47D) | GI50 (UACC-62) | GI50 (OVCAR-8) | GI50 (SF-539) | GI50 (NCI-H522) | GI50 (UO-31) | GI50 (SN12C) | GI50 (HCT-15) | GI50 (MDA-MB-231) | GI50 (SK-MEL-5) | GI50 (HCC 2998)
O=C1CC2C(=O)c3ccccc3CC2c2ccccc21 (stereo unspecified) | 6.49 µM (inactive) | 33 µM (inactive) | 70.6 µM (inactive) | 46.1 µM (inactive) | 56.8 µM (inactive) | 26.7 µM (inactive) | > 100 µM (inactive) | 43 µM (inactive) | 87.1 µM (inactive) | 49.2 µM (inactive) | 35.7 µM (inactive) | 39.5 µM (inactive) | 32.7 µM (inactive) | 57.4 µM (inactive) | 12 µM (inactive) | 55.3 µM (inactive) | 24.3 µM | > 100 µM (inactive) | – | –
CCNC(=O)C1CCCN1C(=O)C(CCCN=C(N)N)NC(=O)C(CC(C)C)NC(=O)C(Cc1c[nH]c2ccccc12)NC(=O)C(Cc1ccc(O)cc1)NC(=O)C(CO)NC(=O)C(Cc1c[nH]c2ccccc12)NC(=O)C(Cc1c[nH]cn1)NC(=O)C1CCC(=O)N1 (stereo unspecified) | > 100 µM (inactive) | > 100 µM (inactive) | – | > 100 µM (inactive) | > 100 µM (inactive) | > 100 µM (inactive) | > 100 µM (inactive) | > 100 µM (inactive) | > 100 µM (inactive) | – | > 100 µM (inactive) | > 100 µM (inactive) | > 100 µM (inactive) | > 100 µM (inactive) | > 100 µM (inactive) | > 100 µM (inactive) | > 100 µM | > 100 µM (inactive) | > 100 µM (inactive) | > 100 µM (inactive)
CCN(CC)c1ccc2c(c1)OC(=O)C(c1nnc(-c3ccc([N+](=O)[O-])cc3)o1)C2 (stereo unspecified) | > 100 µM (inactive) | > 100 µM (inactive) | > 100 µM (inactive) | 10.2 µM (inactive) | 90.4 µM (inactive) | > 100 µM (inactive) | > 100 µM (inactive) | > 100 µM (inactive) | > 100 µM (inactive) | – | > 100 µM (inactive) | > 100 µM (inactive) | – | > 100 µM (inactive) | > 100 µM (inactive) | – | > 100 µM | > 100 µM (inactive) | > 100 µM (inactive) | > 100 µM (inactive)
NCC(O)CSP(=O)(O)O (stereo unspecified) | > 100 µM (inactive) | > 100 µM (inactive) | > 100 µM (inactive) | > 100 µM (inactive) | > 100 µM (inactive) | > 100 µM (inactive) | > 100 µM (inactive) | > 100 µM (inactive) | > 100 µM (inactive) | > 100 µM (inactive) | > 100 µM (inactive) | > 100 µM (inactive) | – | > 100 µM (inactive) | > 100 µM (inactive) | > 100 µM (inactive) | > 100 µM | > 100 µM (inactive) | > 100 µM (inactive) | –
Nc1n[nH]c2nc3ccc(C(F)(F)F)cc3nc12 | 13.6 µM (inactive) | 20.5 µM (inactive) | 21.1 µM (inactive) | 7.87 µM (inactive) | 33.7 µM (inactive) | – | 28.5 µM (inactive) | 25.9 µM (inactive) | 23.3 µM (inactive) | – | 21 µM (inactive) | 19.8 µM (inactive) | – | 20.3 µM (inactive) | 17.6 µM (inactive) | 26.2 µM (inactive) | 23.1 µM | 43.6 µM (inactive) | 48.9 µM (inactive) | 37.7 µM (inactive)
CC(=O)C(=NNc1ccc(-n2c(C)nc3ccccc3c2=O)cc1)C(C)=O | > 100 µM (inactive) | > 100 µM (inactive) | > 100 µM (inactive) | > 100 µM (inactive) | > 100 µM (inactive) | > 100 µM (inactive) | > 100 µM (inactive) | > 100 µM (inactive) | > 100 µM (inactive) | > 100 µM (inactive) | > 100 µM (inactive) | > 100 µM (inactive) | > 100 µM (inactive) | – | > 100 µM (inactive) | > 100 µM (inactive) | > 100 µM | > 100 µM (inactive) | 11.7 µM (inactive) | –
NC1=C(N2CCCCC2)C(=O)NC2=N/C(=C\c3ccco3)C(=O)N21 | > 100 µM (inactive) | – | > 100 µM (inactive) | > 100 µM (inactive) | > 100 µM (inactive) | – | > 100 µM (inactive) | – | – | > 100 µM (inactive) | – | > 100 µM (inactive) | > 100 µM (inactive) | > 100 µM (inactive) | > 100 µM (inactive) | > 100 µM (inactive) | > 100 µM | > 100 µM (inactive) | > 100 µM (inactive) | –
C=C[C@@H]1C[C@]2(C(=O)OC)Cc3nc4ccccc4nc3CC(C(=O)OC)=C2O1 | – | > 100 µM (inactive) | 53.8 µM (inactive) | > 100 µM (inactive) | > 100 µM (inactive) | 23 µM (inactive) | > 100 µM (inactive) | 62.4 µM (inactive) | > 100 µM (inactive) | 85.5 µM (inactive) | > 100 µM (inactive) | > 100 µM (inactive) | > 100 µM (inactive) | 64.6 µM (inactive) | – | > 100 µM (inactive) | 57.1 µM | 92.9 µM (inactive) | 78.9 µM (inactive) | –
Cc1ccc(S(=O)(=O)N2CCCSCCN(S(=O)(=O)c3ccc(C)cc3)CCCSCC2)cc1 | > 100 µM (inactive) | > 100 µM (inactive) | > 100 µM (inactive) | > 100 µM (inactive) | > 100 µM (inactive) | > 100 µM (inactive) | > 100 µM (inactive) | – | > 100 µM (inactive) | 17.5 µM (inactive) | > 100 µM (inactive) | > 100 µM (inactive) | > 100 µM (inactive) | – | 51.8 µM (inactive) | > 100 µM (inactive) | – | > 100 µM (inactive) | > 100 µM (inactive) | 89.5 µM (inactive)
CC1CCCN(CP(=O)(c2ccccc2)c2ccccc2)C1 (stereo unspecified) | > 100 µM (inactive) | 92.5 µM (inactive) | > 100 µM (inactive) | > 100 µM (inactive) | > 100 µM (inactive) | 78.2 µM (inactive) | > 100 µM (inactive) | > 100 µM (inactive) | > 100 µM (inactive) | – | > 100 µM (inactive) | > 100 µM (inactive) | > 100 µM (inactive) | > 100 µM (inactive) | > 100 µM (inactive) | > 100 µM (inactive) | > 100 µM | > 100 µM (inactive) | > 100 µM (inactive) | 52.5 µM (inactive)
CC(C)=C1C(=O)c2c(Cl)sc(Cl)c2C1=O | 18.4 µM (inactive) | > 100 µM (inactive) | 21.7 µM (inactive) | 27.7 µM (inactive) | 30.2 µM (inactive) | 29.3 µM (inactive) | 32.8 µM (inactive) | – | 20 µM (inactive) | 31 µM (inactive) | 19.9 µM (inactive) | 19.7 µM (inactive) | 22.3 µM (inactive) | 16.4 µM (inactive) | 23.4 µM (inactive) | 20.7 µM (inactive) | 20.7 µM | 27.6 µM (inactive) | 93.3 µM (inactive) | –
